Assay results reported in patent publication US20230133209A1, “CELL CLASSIFIER CIRCUITS AND METHODS OF USE THEREOF” (Eidgenössische Technische Hochschule Zürich, priority 2020, published 2023).

Test system: HepG2-LC tumor-bearing mice
Assay: Antitumor efficacy in orthotopic HepG2 xenograft tumor model (bioluminescence tumor load, score sheet)
Type: in vivo, mouse
Experimental: Accordingly, this tumor-targeting program was evaluated in a pilot experiment in the context of orthotopic xenograft tumor model employing HepG2 cells in NSG mice. For the purpose of tumor establishment and tracking, HepG2 cells were stably modified with a lentiviral vector encoding an mCitrine fluorescent protein and firefly luciferase gene, and sorted for homogenous mCitrine expression. The tumors were established by splenic injection of 1M HepG2-LC cells and subsequent spleen dissection.
To gauge antitumor efficacy in vivo, AAV-DJ-HCC.V1-HSV-TK was delivered to HepG2 tumor bearing mice in two consecutive injections, three days apart. The four experimental groups (n=2 in this pilot) included the AAV-DJ-HCC.V1-HSV-TK in combination with GCV regimen (treatment arm), the same vector alone without GCV, sham injection supplemented with GCV regimen, and a sham PBS injection and no GCV.
Next, DJ-pseudotyped AAV vectors harboring the circuit were delivered systemically to HepG2-LC tumor-bearing mice (FIG. 7A). […]
Xenograft mouse liver mouse model: All animal procedures were performed in accordance with the Swiss federal law and institutional guidelines of Eidgenössische Technische Hochschule (ETH) Zurich, and approved by the animal ethics committee of canton Basel-Stadt. […] The tumor growth in mice was monitored by bioluminescence imaging 2-3 times per week (PhotonIMAGER RT, Biospace Lab). […]

Question: Which results are given for `Nc1nc(O)c2ncn(COC(CO)CO)c2n1` [GCV, ganciclovir]?
Answer: tumor load over time (bioluminescence) (n=4 per arm, sham injection + GCV): exponential tumor load increase over time; antitumor activity (tumor load, bioluminescence) (pilot, n=2, sham injection supplemented with GCV regimen): absent
